From patent US20260297042A1, “BIARYLAMIDE DERIVATIVES AND THEIR USE AS PKMYT1 INHIBITORS” (CANCER RESEARCH TECHNOLOGY LIMITED, priority 2023, published 2026)

Legend:
Human PKMYT1 = biological target: T1, Human PKMYT1 (Homo sapiens, UniProt Q99640); assay: PKMYT1 biochemical ADP-Glo enzymatic assay; conditions: ADP-Glo
T1 construct: Human PKMYT1 75-362 was cloned as a TEV cleavable 6xHis fusion; 6xHis (TEV cleavable) (cleaved yes); made in house; host or cells: bacterial cells
T1 sequence (Q99640 75-362): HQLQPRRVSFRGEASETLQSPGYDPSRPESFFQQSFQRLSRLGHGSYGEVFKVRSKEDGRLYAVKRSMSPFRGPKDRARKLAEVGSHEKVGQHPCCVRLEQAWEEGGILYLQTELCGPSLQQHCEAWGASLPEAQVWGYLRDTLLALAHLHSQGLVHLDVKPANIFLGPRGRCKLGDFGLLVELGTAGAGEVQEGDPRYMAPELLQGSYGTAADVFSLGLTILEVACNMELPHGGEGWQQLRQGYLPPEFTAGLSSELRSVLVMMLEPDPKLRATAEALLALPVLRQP
Outline: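 Luminescent ADP-Glo Max read-out of ADP produced by 15 nM PKMYT1 (residues 75-362, bacterial, His-tag removed) from 500 µM ATP without peptide substrate. Reaction: 50 mM HEPES pH 7.5, 10 mM MgCl2, 1 mM EGTA, 0.01% Brij-35, 60 min, 26 °C. IC50 values fitted from 10-point curves.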

WEE1 = biological target: T2, WEE1 (Homo sapiens, UniProt P30291); assay: Selectivity versus WEE1 assay (ADP-Glo enzymatic assay); type: biochemical; conditions: for IC50: ADP-Glo; for PKMYT1 vs. WEE1 selectivity: fold difference in selectivity for PKMYT1 over WEE1
T2 construct: purchased Thermo Fisher PR7373A
Outline: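 ADP-Glo luminescence read-out after a 60 min reaction at 26° C, initiated by 30 µM ATP, with 15 nM enzyme in HEPES pH 7.5/MgCl2/EGTA/Brij-35 buffer containing 1% DMSO. Replicate IC50 values had to agree within 3-fold and fits needed r2 >0.9.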

OVCAR 3 cells = assay: Cancer cell line proliferation assay, ATP-based cell viability (Cell Titre Glow), OVCAR 3 (CCNE1-amplified); conditions: for Selectivity ratio KYSE30 Gl50 vs. OVCAR3 Gl50: KYSE30 (normal CCNE1) GI50 vs. OVCAR 3 (CCNE1-amplified) GI50
Method: (§1) Cancer cell lines with either normal (KYSE-30) or amplified CCNE1 expression (OVCAR 3 —ovarian cancer) were evaluated for their sensitivity to PKMYT1 inhibitors using Cell Titre Glow assay (Promega G7573) as endpoint to assess cell proliferation. The luminescence signal was read on a PHERAStar FS microplate reader (BMG Labtech). Data analysis was performed using Microsoft Excel® and Gl50 (concentration that achieves 50% cell growth proliferation inhibition) estimates generated with GraphPad Prism v9.

KYSE-30 cells = assay: Cancer cell line proliferation assay, ATP-based cell viability (Cell Titre Glow), KYSE-30 (normal CCNE1); conditions: Homo sapiens, KYSE-30 cells (normal CCNE1), concentration that achieves 50% cell growth proliferation inhibition, read-out: KYSE30 Gl50
Method: as §1

[1] = 15 nM PKMYT1 kinase domain, 500 µM ATP, 60 minutes at 26° C., banded
[2] = 15 nM WEE1, 60 minutes at 26° C., banded
[3] = banded, ">N" = at least in this band but could be higher
[4] = PKMYT1 kinase domain 15 nM, banded values

T2 sequence (P30291 whole entry): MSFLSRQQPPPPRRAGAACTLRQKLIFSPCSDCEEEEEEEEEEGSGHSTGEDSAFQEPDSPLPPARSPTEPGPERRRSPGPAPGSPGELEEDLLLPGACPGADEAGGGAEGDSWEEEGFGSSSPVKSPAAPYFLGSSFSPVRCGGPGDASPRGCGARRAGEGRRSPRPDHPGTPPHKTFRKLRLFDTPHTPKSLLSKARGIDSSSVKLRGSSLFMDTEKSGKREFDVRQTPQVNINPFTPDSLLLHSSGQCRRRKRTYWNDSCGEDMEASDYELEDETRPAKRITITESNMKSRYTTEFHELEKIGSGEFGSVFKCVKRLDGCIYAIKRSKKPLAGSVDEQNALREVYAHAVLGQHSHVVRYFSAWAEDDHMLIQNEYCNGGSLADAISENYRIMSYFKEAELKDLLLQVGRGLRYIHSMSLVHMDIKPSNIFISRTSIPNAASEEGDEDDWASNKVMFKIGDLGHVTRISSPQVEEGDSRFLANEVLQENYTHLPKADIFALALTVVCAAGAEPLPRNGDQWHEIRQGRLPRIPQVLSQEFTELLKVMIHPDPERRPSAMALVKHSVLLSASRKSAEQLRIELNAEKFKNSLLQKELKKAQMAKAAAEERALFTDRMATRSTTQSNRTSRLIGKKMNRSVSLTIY

| SMILES | IC50 (Human PKMYT1; [1]) [nM] | IC50 (WEE1; [2]) [nM] | PKMYT1 vs. WEE1 selectivity (WEE1; [3]) | GI50 (OVCAR 3 cells; Homo sapiens, OVCAR 3 cells (CCNE1-amplified), concentration that achieves 50% cell growth proliferation inhibition, read-out: OVCAR 3 Gl50) [nM] | Selectivity ratio KYSE30 Gl50 vs. OVCAR3 Gl50 (OVCAR 3 cells) | GI50 (KYSE-30 cells) [nM] | IC50 (Human PKMYT1; [4]) [nM] | IC50 (WEE1; WEE1 15 nM, banded values) [nM] | PKMYT1 vs. WEE1 selectivity (WEE1; banded) |
| --- | --- | --- | --- | --- | --- | --- | --- | --- | --- |
| Cc1ccc(O)c(C)c1NC(=O)c1cnc(Nc2ccn(C3CCC3)n2)s1 [BAA-013, 2-[(1-cyclobutylpyrazol-3-yl)amino]-N-(3-hydroxy-2,6-dimethyl-phenyl)thiazole-5-carboxamide] | < 50 | 1000 to 11000 | W (10-<100 fold) | 500 to 5000 | X (3-20 fold) | > 5000 | – | – | – |
| CCN(CC)C(=O)C(C)n1ccc(Nc2ncc(C(=O)Nc3c(C)ccc(O)c3C)s2)n1 (stereo not drawn) [BAA-512, 2-((1-(1-(diethylamino)-1-oxopropan-2-yl)-1H-pyrazol-3-yl)amino)-N-(3-hydroxy-2,6-dimethylphenyl)thiazole-5-carboxamide] | – | – | – | – | Y (>20 fold) | > 5000 | < 50 | > 11000 | Y (1000-5000 fold) |
| Cc1ccc(O)c(C)c1NC(=O)c1cnc(Nc2ccn(C(C)C(=O)N3CCCC3)n2)s1 (stereo not drawn) [BAA-506, N-(3-Hydroxy-2.6-dimethylphenyl)-2-((1-(1-oxo-1-(pyrrolidin-1-yl)propan-2-yl)-1H-pyrazol-3-yl)amino)thiazole-5-carboxamide] | – | – | – | – | Y (>20 fold) | > 5000 | < 50 | 1000 to 11000 | X (100-<1000 fold) |
| Cc1cn(-c2cccnc2)nc1Nc1ncc(C(=O)Nc2c(C)ccc(O)c2C)s1 [BAA-371, N-(3-hydroxy-2,6-dimethylphenyl)-2-((4-methyl-1-(pyridin-3-yl)-1H-pyrazol-3-yl)amino)thiazole-5-carboxamide] | < 50 | 1000 to 11000 | X (100-<1000 fold) | – | Y (>20 fold) | > 5000 | – | – | – |
| Cc1ccc(O)c(C)c1NC(=O)c1cnc(Nc2cccc(-c3ccc(F)cc3)n2)s1 [BAA-306, 2-((6-(4-fluorophenyl)pyridin-2-yl)amino)-N-(3-hydroxy-2,6-dimethylphenyl)thiazole-5-carboxamide] | 50 to 1000 | > 11000 | X (100-<1000 fold) | – | X (3-20 fold) | 500 to 5000 | – | – | – |
| Cc1cn(-c2cnc(Cl)cc2Br)nc1Nc1ncc(C(=O)Nc2c(C)ccc(O)c2C)s1 [BAA-378] | 50 to 1000 | 1000 to 11000 | W (10-<100 fold) | – | X (3-20 fold) | 500 to 5000 | – | – | – |
| CCOc1ccc(-n2cc(C)c(Nc3ncc(C(=O)Nc4c(C)ccc(O)c4C)s3)n2)cn1 [BAA-369, 2-((1-(6-ethoxypyridin-3-yl)-4-methyl-1H-pyrazol-3-yl)amino)-N-(3-hydroxy-2,6-dimethylphenyl)thiazole-5-carboxamide] | 50 to 1000 | > 11000 | X (100-<1000 fold) | – | Y (>20 fold) | > 5000 | – | – | – |
| Cc1ccc(O)c(C)c1NC(=O)c1cnc(Nc2ncnc3sccc23)s1 [BAA-447, N-(3-hydroxy-2,6-dimethylphenyl)-2-(thieno[2,3-d]pyrimidin-4-ylamino)thiazole-5-carboxamide] | – | – | – | – | Y (>20 fold) | > 5000 | < 50 | 1000 to 11000 | X (100-<1000 fold) |
| Cc1ccc(O)c(C)c1NC(=O)c1cnc(Nc2cccc(-c3ncccn3)n2)s1 [BAA-403, N-(3-hydroxy-2,6-dimethylphenyl)-2-((6-(pyrimidin-2-yl)pyridin-2-yl)amino)thiazole-5-carboxamide] | – | – | – | – | Y (>20 fold) | > 5000 | < 50 | 50 to 1000 | W (10-<100 fold) |
| Cc1ccc(NC(=O)NC(C)(C)C)nc1Nc1ncc(C(=O)Nc2c(C)ccc(O)c2C)s1.Cl [BAA-336, 2-((6-(3-(tert-butyl)ureido)-3-methylpyridin-2-yl)amino)-N-(3-hydroxy-2,6-dimethylphenyl)thiazole-5-carboxamide hydrochloride] | 50 to 1000 | > 11000 | X (100-<1000 fold) | – | Y (>20 fold) | > 5000 | – | – | – |
| Cc1cn(C)nc1Nc1ncc(C(=O)Nc2c(C)ccc(O)c2C)s1 [BAA-123, 2-[(1,4-dimethylpyrazol-3-yl)amino]-N-(3-hydroxy-2,6-dimethyl-phenyl)thiazole-5-carboxamide] | < 50 | 1000 to 11000 | X (100-<1000 fold) | – | Y (>20 fold) | > 5000 | – | – | – |
| Cc1ccc(O)c(C)c1NC(=O)c1cnc(Nc2ncnn3cccc23)s1 [BAA-450, N-(3-hydroxy-2,6-dimethylphenyl)-2-(pyrrolo[2,1-f][1,2,4]triazin-4-ylamino)thiazole-5-carboxamide] | – | – | – | – | X (3-20 fold) | > 5000 | < 50 | 1000 to 11000 | X (100-<1000 fold) |
| CCN(C)C(=O)Cn1cc(C)c(Nc2ncc(C(=O)Nc3c(C)ccc(O)c3C)s2)n1 [BAA-489, 2-((1-(2-(ethyl(methyl)amino)-2-oxoethyl)-4-methyl-1H-pyrazol-3-yl)amino)-N-(3-hydroxy-2,6-dimethylphenyl)thiazole-5-carboxamide] | – | – | – | – | Y (>20 fold) | > 5000 | < 50 | 1000 to 11000 | X (100-<1000 fold) |
| CCN(CC(F)(F)F)C(=O)Cn1cc(C)c(Nc2ncc(C(=O)Nc3c(C)ccc(O)c3C)s2)n1 [BAA-502, 2-((1-(2-(ethyl(2,2,2-trifluoroethyl)amino)-2-oxoethyl)-4-methyl-1H-pyrazol-3-yl)amino)-N-(3-hydroxy-2,6-dimethylphenyl)thiazole-5-carboxamide] | – | – | – | – | Y (>20 fold) | > 5000 | < 50 | 1000 to 11000 | X (100-<1000 fold) |
| Cc1ccc(O)c(C)c1NC(=O)c1cnc(Nc2cc(-c3ccc(F)cc3)ccn2)s1 [BAA-294, 2-((4-(4-fluorophenyl)pyridin-2-yl)amino)-N-(3-hydroxy-2,6-dimethylphenyl)thiazole-5-carboxamide] | 50 to 1000 | > 11000 | X (100-<1000 fold) | – | Y (>20 fold) | > 5000 | – | – | – |
| CCN(CC)C(=O)C(C)n1nc(Nc2ncc(C(=O)Nc3c(C)ccc(O)c3C)s2)cc1C (stereo not drawn) [BAA-509, 2-((1-(1-(diethylamino)-1-oxopropan-2-yl)-5-methyl-1H-pyrazol-3-yl)amino)-N-(3-hydroxy-2,6-dimethylphenyl)thiazole-5-carboxamide] | – | – | – | – | Y (>20 fold) | > 5000 | 50 to 1000 | > 11000 | X (100-<1000 fold) |
